Results as given in BindingDB's records for doi:10.1021/jm070643q (Universit&#224, 2007).

biological target: beta-lactamase AmpC (Escherichia coli) (UniProt P00811); test: Inhibition of Escherichia coli beta-lactamase
Sequence (P00811 whole entry, looked up): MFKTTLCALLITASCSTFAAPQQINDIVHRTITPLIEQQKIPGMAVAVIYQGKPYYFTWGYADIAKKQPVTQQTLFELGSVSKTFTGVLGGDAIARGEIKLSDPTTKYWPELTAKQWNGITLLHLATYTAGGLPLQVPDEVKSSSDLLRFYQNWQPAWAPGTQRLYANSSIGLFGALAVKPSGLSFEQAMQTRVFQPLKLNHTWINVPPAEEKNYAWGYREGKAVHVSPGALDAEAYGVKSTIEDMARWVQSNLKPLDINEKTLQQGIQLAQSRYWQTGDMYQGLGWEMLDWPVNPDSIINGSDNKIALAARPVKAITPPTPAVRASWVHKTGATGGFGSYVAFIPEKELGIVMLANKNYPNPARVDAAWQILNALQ

Row | SMILES | Ki [nM]
1 | O=CNCc1ccc2sc(B(O)O)cc2c1 [5-formylaminomethylbenzo[b]thiophen-2-ylboronic acid] | 450
2 | Cc1ccc2sc(B(O)O)cc2c1 [5-methyl-benzo[b]thiophen-2-ylboronic acid] | 30
3 | OB(O)c1cc2cc(Cn3ccnc3)ccc2s1 [5-imidazol-1-yl-methylbenzo[b]thiophen-2-ylboronic acid] | 82
